According to US20160215348A1, “GENE EXPRESSION BIOMARKERS AND THEIR USE FOR DIAGNOSTIC AND PROGNOSTIC APPLICATION IN PATIENTS POTENTIALLY IN NEED OF HDAC INHIBITOR TREATMENT” (4SC AG, priority 2013, published 2016):

System: ZFP64
Test: qPCR relative expression (vs cycle 1, day 1, hour 0) in patients' whole blood
Assay type: in vivo, human
Conditions: HCC patients; Sorafenib 400 mg added to Resminostat 600 mg
Experimental: 2.5 ml whole blood from patients was collected in PAXgene™ tubes (BD Biosciences) that contain chemicals to lyse the erythrocytes, stabilize RNA from degradation by RNases and minimize ex vivo changes in gene expression. The samples were incubated at 20° C. to 25° C. for 2 hours and then frozen at −20° C. until purification of total RNA.
Total RNA was isolated from the whole blood samples stabilized in PAXgene™ buffer using a spin column based technique suitable for whole blood samples (like PAXgene™ Blood miRNA Kit or PAXgene™ Blood RNA Kit from Qiagen) according to the manufacturer's instructions. The purification began with a centrifugation step to pellet nucleic acids in the (PAXgene™ Blood RNA) tube. The resuspended pellet was incubated in buffers, optimized for maintenance of RNA stability together with proteinase K to bring about protein digestion. An additional centrifugation through the PAXgene™ Shredder spin column was carried out to homogenize the cell lysate and remove residual cell debris, and the supernatant of the flow-through fraction was transferred to a fresh microcentrifuge tube. Ethanol was added to adjust binding conditions, and the lysate was applied to a PAXgene™ RNA spin column. During a brief centrifugation, RNA was selectively bound to the PAXgene™ silica membrane as contaminants pass through. Remaining contaminants were removed in several efficient wash steps. Between the first and second wash steps, the membrane was treated with DNase I, as described herein below in 1.3 to remove trace amounts of bound DNA. After the wash steps, RNA was eluted in nuclease free water and heat-denatured.
The High-Capacity cDNA Reverse Transcription Kit (Applied Biosystems) was used for reverse transcription of total RNA into single stranded cDNA with the aid of random hexamer primers according to the manufacturer's instructions. Briefly, for the reaction mix total RNA was mixed with random primers in excess, 4 mM dNTP Mix, 2.5 U/reaction, reverse transcriptase and nuclease free water. The reverse transcription took place in a thermal cycler under the following conditions: 25° C. for 10 min, 37° C. for 120 min, 85° C. for 5 min, followed by 4° C. for cooling down the reaction. The reverse transcription can be done in principle as well with other reverse transcriptases, primers and temperature protocols. Whenever possible, 250 ng total RNA were reverse transcribed if not available, lower amounts were used.
Custom TaqMan® Arrays (Applied Biosystems) in Format 16 were designed for the gene expression analysis of biomarkers of the present invention and housekeeping genes as outlined in table 4. These arrays allow for qPCR analysis of 8 samples per card. Of course, all reactions can be done as well by conventional qPCR analysis with specific primers.
The reaction mix was transferred into the reaction chambers by centrifuging twice for 1 minute each at 330 g and 4° C. After sealing, the microfluidic cards were run on an AB7900HT instrument (Applied Biosystems). The software SDS 2.4 (Applied Biosystems) was employed for instrument control, data acquisition and raw data analysis. The plates were run in Relative Quantification (ΔΔCt) mode, and the following temperature profile was used:
This analysis was carried out for each patient separately. The first sample (cycle 1, day 1, hour 0) was used as the reference sample. The ‘exprs’ value indicates relative expression levels (fold change values) for individual samples.
Table 5 contains the median expression level values for treatment day 5 (cycle 1, day 5, hours 0, 2, and 5) at a daily dose of 600 mg or 800 mg Resminostat mesylate salt is given below.

CNC(=O)c1cc(Oc2ccc(NC(=O)Nc3ccc(Cl)c(C(F)(F)F)c3)cc2)ccn1 [sorafenib, reference compound]
Effect of additional administration on ZFP64 expression (FIG. 4b): does not affect
